Laboratory results published in patent US9090670B2, “Use of peptides for promoting wound healing” (priority 2008, dated 2015).
Where no end group is shown, it is not given here.

Assays:
[1] = test system: human buccal epithelial cell line TR146; experiment: In vitro scratch wound closure assay on an epithelial monolayer; format: cell-based
Method: The human buccal epithelial cell line TR146 (Rupniak et al; J Natl Cancer Inst. 1985 October: 75(4):621-35) was kindly provided by Cancer Research UK. Cells were grown in Dulbecco's modified Eagle medium with 4.5 g/l glucose (Invitrogen), 10% FCS (HyClone) and 100 U/ml penicillin, […] streptomycin, and 250 ng/ml amphotericinB (Antibiotic antimyotic solution, Sigma,), at 37° C., 95% humidity and 5% CO2. Cells were maintained until near confluence and then briefly treated with 0.25% trypsin-EDTA 1× (Invitrogen) to detach them, counted in a hepacytometer and seeded into new flasks or multi-well plates at the required cell density of about 1.5×10^5 cells/well. Wound assays were performed as previously described ([…] et al., 1993, J Cell Sci. 106 (Pt 3):869-78). In brief, cells were grown in 12-well plates until confluence, and then were serum deprived for 24 hours in keratinocyte serum free medium (SFM (Invitrogen)). In each well a scratch was made in the cellular monolayer using a sterile tip. The wounded monolayer was washed with SFM to remove cellular debris, and the following conditions were applied: • (i) Whole saliva and salivary secretions applied in 30% (v/v) in SFM. As a negative control 30% (v/v) saliva buffer was used. • (ii) (ii) rhEGF (Invitrogen) as a positive control • (iii) rp-HPLC fractions containing salivary proteins; • (iv) synthetic peptides: the experiments with isolated proteins and synthetic peptides were performed in full SFM. The width of the wound area was determined microscopically immediately after wound creation and at approximately 16 hours after wounding. The relative closure was calculated by relating the closure to that of the negative control.

[2] = test system: human buccal epithelial cell line TR146; experiment: In vitro wound closure with inhibitors of EGFR, p38 MAPK and ERK1/2; format: cell-based
Method: Wound assays were performed as previously described (Matthay et al., 1993, J Cell Sci. 106 (Pt 3):869-78). In brief, cells were grown in 12-well plates until confluence, and then were serum deprived for 24 hours in keratinocyte serum free medium (SFM (Invitrogen)). In each well a scratch was made in the cellular monolayer using a sterile tip. The wounded monolayer was washed with SFM to remove cellular debris, and the following conditions were applied: • (i) Whole saliva and salivary secretions applied in 30% (v/v) in SFM. As a negative control 30% (v/v) saliva buffer was used. • (ii) (ii) rhEGF (Invitrogen) as a positive control • (iii) rp-HPLC fractions containing salivary proteins; • (iv) synthetic peptides: the experiments with isolated proteins and synthetic peptides were performed in full SFM.
For inhibitor studies; directly after wounding cells were exposed to inhibitors of ERK1/2 (U0126, 5 μM, LC Laboratories), EGFR (AG1478, 1 μM, Calbiochem), and p38 MAPK (SB203580, 5 μM; LC Laboratories). Experiments were done in quadruplicate and analyzed using One-way ANOVA to determine significance with additional LSD post hoc test, P<0.05 was considered significant.

C-HST1: cyclic peptide having the amino acid sequence according to SEQ. ID. NO. 4, Histatin 1 (DSHEKRHHGYRRKFHEKHHSHREFPFYGDYGSNYLYDN; ends and bridges not checked; also: cyclic, mode of cyclisation not given here)
relative wound closure ([1]; concentration of 1*10-3 μM, FIG. 4, 1 = no peptide added): 1.5

CC(C)C[C@H](NC(=O)[C@H](Cc1ccc(O)cc1)NC(=O)[C@H](CC(N)=O)NC(=O)[C@H](CO)NC(=O)[C@H](CCCNC(=N)N)NC(=O)[C@H](Cc1ccc(O)cc1)NC(=O)CNC(=O)[C@H](CCCNC(=N)N)NC(=O)[C@H](Cc1c[nH]cn1)NC(=O)[C@H](CO)NC(=O)[C@H](Cc1c[nH]cn1)NC(=O)[C@H](Cc1c[nH]cn1)NC(=O)[C@H](CCCCN)NC(=O)[C@H](CCC(=O)O)NC(=O)[C@H](Cc1c[nH]cn1)NC(=O)[C@H](Cc1ccccc1)NC(=O)[C@H](CCCCN)NC(=O)[C@H](CCCNC(=N)N)NC(=O)[C@H](CCCCN)NC(=O)[C@H](Cc1ccc(O)cc1)NC(=O)CNC(=O)[C@H](Cc1c[nH]cn1)NC(=O)[C@H](Cc1c[nH]cn1)NC(=O)[C@H](CCCNC(=N)N)NC(=O)[C@H](CCCCN)NC(=O)[C@H](C)NC(=O)[C@H](Cc1c[nH]cn1)NC(=O)[C@H](CO)NC(=O)[C@@H](N)CC(=O)O)C(=O)N[C@@H](Cc1ccc(O)cc1)C(=O)N[C@@H](CC(=O)O)C(=O)N[C@@H](CC(N)=O)C(=O)O [Histatin 3]
induction of wound closure (in words) ([1]; synthesized peptides in SFM, vs control): induce wound closure

EGF: epidermal growth factor, rhEGF (Invitrogen), used as a positive control
induction of wound closure by EGF ([1]; 5 ng/ml, FIG. 1D): able to induce wound closure with rates comparable to that of parotid saliva | Wound closure rel. clos. ± SD ([1]; TR146 monolayer, approx. 16 hours after wounding, closure relative to negative control, peptides tested at 1-50 μg/ml): 1.41 ± 0.12 | induced wound closure with EGFR blocked ([2]; AG1478 1 μM): abolished the effect | pathway dependence of induced wound closure ([2]; SB203580 5 μM (p38 MAPK), U0126 5 μM (ERK1/2), FIG. 2): p38^MAPK dependent
